According to patent US20260374782A1, “NEW COMPOUNDS, PROCESSES FOR PREPARING THE SAME AND THEIR USE AS DRUGS” (B&A ONCOMEDICAL, priority 2022, published 2026):

Target: T1, NKCC1 (Homo sapiens, UniProt P55011)
T1 construct: endogenous in cells; host or cells: native HEK293 cells
T1 sequence (P55011 1-1212): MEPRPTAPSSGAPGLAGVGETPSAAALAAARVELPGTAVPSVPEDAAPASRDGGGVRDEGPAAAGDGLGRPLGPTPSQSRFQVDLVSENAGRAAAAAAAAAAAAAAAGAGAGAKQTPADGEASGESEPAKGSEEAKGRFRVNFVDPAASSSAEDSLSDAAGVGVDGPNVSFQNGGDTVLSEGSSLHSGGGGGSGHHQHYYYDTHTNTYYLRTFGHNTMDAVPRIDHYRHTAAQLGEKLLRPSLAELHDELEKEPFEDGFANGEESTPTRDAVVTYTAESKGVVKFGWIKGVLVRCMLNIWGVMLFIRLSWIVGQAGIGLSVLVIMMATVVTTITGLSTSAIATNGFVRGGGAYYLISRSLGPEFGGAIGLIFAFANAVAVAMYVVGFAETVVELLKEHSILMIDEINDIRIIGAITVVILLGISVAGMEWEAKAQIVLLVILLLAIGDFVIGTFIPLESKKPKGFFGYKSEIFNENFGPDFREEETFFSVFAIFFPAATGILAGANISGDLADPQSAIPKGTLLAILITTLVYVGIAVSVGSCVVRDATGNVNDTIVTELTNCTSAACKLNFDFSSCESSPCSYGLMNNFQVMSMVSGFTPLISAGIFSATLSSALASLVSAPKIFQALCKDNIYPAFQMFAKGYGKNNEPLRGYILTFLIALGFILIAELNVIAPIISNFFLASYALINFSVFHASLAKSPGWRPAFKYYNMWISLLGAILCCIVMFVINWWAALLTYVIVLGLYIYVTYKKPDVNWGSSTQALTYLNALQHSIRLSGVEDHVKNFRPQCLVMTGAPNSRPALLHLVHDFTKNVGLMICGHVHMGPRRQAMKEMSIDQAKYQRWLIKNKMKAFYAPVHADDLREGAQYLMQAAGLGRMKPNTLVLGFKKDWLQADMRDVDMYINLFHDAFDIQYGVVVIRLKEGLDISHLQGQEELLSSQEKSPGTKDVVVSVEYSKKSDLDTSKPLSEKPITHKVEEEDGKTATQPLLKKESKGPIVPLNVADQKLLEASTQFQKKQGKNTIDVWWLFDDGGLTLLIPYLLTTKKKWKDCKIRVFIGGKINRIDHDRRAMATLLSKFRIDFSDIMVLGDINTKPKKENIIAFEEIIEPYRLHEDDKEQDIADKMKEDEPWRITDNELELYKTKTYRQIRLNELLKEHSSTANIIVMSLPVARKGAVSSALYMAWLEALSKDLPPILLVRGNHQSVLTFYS
Assay: NKCC1-mediated K+ influx (83Rb tracer uptake) in native HEK293 cells, hypertonic saline, 100 μM ouabain
Assay type: cell-based
Conditions: HEK293, no drug = 1000, 20 μM bumetanide = 0; for inhibition at 2 µM: read-out: NKCC1 mediated flux inhibition at 2 μM (%); for inhibition at 20 µM: read-out: NKCC1 mediated flux inhibition at 20 μM (%)
Excerpt: The compounds of the invention have been tested for evaluating their potency in inhibiting the NKCC1 channel. The test used is a cellular assay expressing the NKCC1 channel: HEK293 cells are human cells derived from embryonic kidney. The inhibitory activity of the compounds has been evaluated in measuring the modification of the potassium flux at 2 concentrations, as described hereafter in the biological protocol.
HEK293 cells are human cells derived from embryonic kidney. They express at their plasma membranes proteins that transport potassium (K^+). Among these proteins is the Na—K-2Cl cotransporter or NKCC1. This transporter contributes to 40-50% of K^+ influx into the cells. The remaining of K^+ transport is mediated by the Na^+/K^+-ATPase (also known as Na^+ pump or Na^+/K^+ pump), which also contributes some 40-50% of the influx basal flux of 5-10%, which is mainly due to K^+ channels (FIG. 1A). Thus, the HEK293 cell in culture is an ideal model to study the function of NKCC1 and test compounds that inhibits its transport.
The assay to measure NKCC1 function was optimized to obtain the next signal to noise ratio: • a. A slightly hypertonic saline was used to stimulate NKCC1 function. […] By consistent use of this simple manipulation, the NKCC1 signal was enhanced. • b. Ouabain, an inhibitor of the Na^+/K^+ pump, was used at 100 μM. […] A radioactive isotope was used to trace the inward movement of K^+ into the cell (influx). This allowed for highly precise measurements of K^+ influx. Because radioactive isotopes of K^+ had very short half-lives, radioactive isotopes of Rb^+ were used. Rubidium was a monovalent cation which was readily transporter at the K^+ binding site by many transporters and channels. Rb^+ was a congener of K^+, being transported undistinguishably from K^+. ^83Rb (half-life of 83 days) was used since ^86Rb (half-life of 19.6 days) is no longer commercially available. The ^83Rb isotope was used as a tracer, i.e. at a very low amounts to trace the movement of K^+.
K^+ influx measured in native HEK293 was in the range of 7000-9000 pmoles K^+ per mg protein per min. In the presence of 20 μM Ref 1, the flux was reduced to 600-900 pmoles K^+ per mg protein per min. Thus, there was a very solid dynamic range. In each experiment, the flux without Ref 1 was set at 1000 (equivalent to 100.0%) and the flux with 20 μM bumetanide was set at 0 (equivalent to 0%).
For the flux experiments, 35-mm culture dishes were coated with 0.1 mg/mL poly-L-lysine and placed in large 20×20 [square] dishes. For convenience, the poly-L-lysine was placed in the dishes the day before the experiment. Before plating the cells, the poly-L-lysine was aspirated, and each dish washed twice with 1 mL sterile water. Cells from 3 confluent 10-cm dishes were detached with trypsin and resuspended into 49 mL complete medium. Cells (2 mL/35-mm dish) were plated in 24 dishes and allowed to attach for at least 2 hours prior to the flux. This setup allowed the measurement of 8 conditions in triplicates. For the flux, culture medium was aspirated and replaced with 1 mL saline for a preincubation period of 15 min. The saline was aspirated and replaced with 1 mL identical saline containing 0.25 μCi/mL 83Rb for 15 min. Following the uptake period, the radioactive solution was aspirated, and the cells washed 3 times with ice-cold saline. Cells were then lyzed with 500 μl 0.25N NaOH for 1 hour, neutralized with 250 μL glacial acetic acid and 300 μL and 30 μL aliquots were used for μ-scintillation counting and protein assays, respectively. Two 5 μL of each flux solution was used to determine cpm and relate those cpm to nmoles K^+. Potassium influx was expressed in nmoles K^+ per mg protein per min. Note that within an experiment, groups of 3 dishes were separated 2 min apart for easy handling. Also note that since all dishes were plated with a homogeneous cell suspension, and all dishes were identical, the protein content was measured from a subset of dishes. […]

Row | inhibition at 2 µM [%] | inhibition at 20 µM [%] | SMILES
1 | 10 to 30 | ≥ 75 | CCCCNc1cc(C(=O)O)cc(S(=N)(=O)NCCc2cccnc2)c1Oc1ccccc1 (stereo not drawn) [Compound 84, 3-(butylamino)-4-phenoxy-5-[[2-(3-pyridyl)ethylamino]sulfonimidoyl]benzoic acid]
2 | 10 to 30 | 50 to 75 | CCCCNc1cc(C(=O)O)cc(S(=N)(=O)NC2CC2)c1Oc1ccccc1 (stereo not drawn) [Compound 60, 3-(butylamino)-5-[(cyclopropylamino)sulfonimidoyl]-4-phenoxy-benzoic acid]
3 | 30 to 50 | 30 to 50 | CCCCNc1cc(C(=O)OC)cc(S(=N)(=O)NC23CC(C2)C3)c1Oc1ccccc1 (stereo not drawn) [Compound 47, methyl 3-[(1-bicyclo[1.1.1]pentanylamino)sulfonimidoyl]-5-(butylamino)-4-phenoxy-benzoate]
4 | 10 to 30 | 30 to 50 | CCCCNc1cc(C(=O)OC)cc(S(=N)(=O)N2Cc3ccccc3C2)c1Oc1ccccc1 (stereo not drawn) [Compound 24, methyl 3-(butylamino)-5-(isoindolin-2-ylsulfonimidoyl)-4-phenoxy-benzoate]
5 | 10 to 30 | 50 to 75 | CCCCNc1cc(C(=O)O)cc(S(=N)(=O)NC2CCN(C(C)=O)CC2)c1Oc1ccccc1 (stereo not drawn) [Compound 92, 3-[[(1-acetyl-4-piperidyl)amino]sulfonimidoyl]-5-(butylamino)-4-phenoxy-benzoic acid]
6 | 30 to 50 | 10 to 30 | CCCCNc1cc(C(=O)OC)cc(S(C)(=O)=NC)c1Oc1ccccc1 (stereo not drawn) [Compound 133, methyl 3-(butylamino)-5-(N,S-dimethylsulfonimidoyl)-4-phenoxy-benzoate]
7 | 30 to 50 | 30 to 50 | CCCCNc1cc(C(=O)OC)cc(S(=N)(N)=O)c1Oc1ccccc1 (stereo not drawn) [Compound 25, methyl 3-(aminosulfonimidoyl)-5-(butylamino)-4-phenoxy-benzoate]
8 |  | 10 to 30 | CCCCNc1cc(C(=O)OC)cc(S(=N)(=O)NCCc2nccs2)c1Oc1ccccc1 (stereo not drawn) [Compound 39, methyl 3-(butylamino)-4-phenoxy-5-[(2-thiazol-2-ylethylamino)sulfonimidoyl]benzoate]
9 | 10 to 30 | 10 to 30 | CCCCNc1cc(C(=O)OC)cc(S(=N)(=O)NCc2ccn(C)n2)c1Oc1ccccc1 (stereo not drawn) [Compound 42, methyl 3-(butylamino)-5-[[(1-methylpyrazol-3-yl)methylamino]sulfonimidoyl]-4-phenoxy-benzoate]
10 | 30 to 50 | ≥ 75 | CCCCNc1cc(C(=O)O)cc(S(=N)(=O)NCc2ccccc2)c1Oc1ccccc1 (stereo not drawn) [Compound 58, 3-[(benzylamino)sulfonimidoyl]-5-(butylamino)-4-phenoxy-benzoic acid]
11 | 30 to 50 | ≥ 75 | CCCCNc1cc(C(=O)O)cc(S(=N)(=O)NCc2nccs2)c1Oc1ccccc1 (stereo not drawn) [Compound 85, 3-(butylamino)-4-phenoxy-5-[(thiazol-2-ylmethylamino)sulfonimidoyl]benzoic acid]
12 | 30 to 50 | ≥ 75 | CCCCNc1cc(C(=O)O)cc(S(=N)(=O)Nc2ccncc2)c1Oc1ccccc1 (stereo not drawn) [Compound 91, 3-(butylamino)-4-phenoxy-5-[(4-pyridylamino)sulfonimidoyl]benzoic acid]
13 | 30 to 50 | 50 to 75 | CCCCNc1cc(C(=O)NC)cc(S(=N)(=O)NCC2CCOCC2)c1Oc1ccccc1 (stereo not drawn) [Compound 103, 3-(butylamino)-N-methyl-4-phenoxy-5-[(tetrahydropyran-4-ylmethylamino)sulfonimidoyl]benzamide]
14 |  | 10 to 30 | CCCCNc1cc(C(=O)NCC2CC2)cc(S(=N)(=O)Nc2ccccc2)c1Oc1ccccc1 (stereo not drawn) [Compound 107, 3-(anilinosulfonimidoyl)-5-(butylamino)-N-(cyclopropylmethyl)-4-phenoxy-benzamide]
15 | 30 to 50 |  | CCCCNc1cc(C(=O)NC)cc(S(=N)(=O)Nc2ccccc2)c1Oc1ccccc1 (stereo not drawn) [Compound 104, 3-(anilinosulfonimidoyl)-5-(butylamino)-N-methyl-4-phenoxy-]
16 | 30 to 50 | 10 to 30 | CCCCNc1cc(C(=O)OC)cc(S(=N)(=O)NCC2CCN(C(C)=O)CC2)c1Oc1ccccc1 (stereo not drawn) [Compound 49, methyl 3-[[(1-acetyl-4-piperidyl)methylamino]sulfonimidoyl]-5-(butylamino)-4-phenoxy-benzoate]
17 |  | 10 to 30 | CCCCNc1cc(C(=O)NC)cc(S(=N)(=O)NCc2ccccc2)c1Oc1ccccc1 (stereo not drawn) [Compound 102, 3-[(benzylamino)sulfonimidoyl]-5-(butylamino)-N-methyl-4-phenoxy-benzamide]
18 | 50 to 75 | ≥ 75 | CCCCNc1cc(C(=O)O)cc(S(=N)(=O)NCCc2nccs2)c1Oc1ccccc1 (stereo not drawn) [Compound 86, 3-(butylamino)-4-phenoxy-5-[(2-thiazol-2-ylethylamino)sulfonimidoyl]benzoic acid]
19 | 30 to 50 | 10 to 30 | CCCCNc1cc(C(=O)NOC)cc(S(=N)(=O)NCc2cccc(Cl)c2)c1Oc1ccccc1 (stereo not drawn) [Compound 117, 3-(butylamino)-5-[[(3-chlorophenyl)methylamino]sulfonimidoyl]-N-methoxy-4-phenoxy-benzamide]
20 | 30 to 50 | ≥ 75 | CCCCNc1cc(C(=O)O)cc(S(=N)(=O)NCC2CCN(C(C)=O)CC2)c1Oc1ccccc1 (stereo not drawn) [Compound 97, 3-[[(1-acetyl-4-piperidyl)methylamino]sulfonimidoyl]-5-(butylamino)-4-phenoxy-benzoic acid]
